Target: T1, STARD1 (StAR), STARD1^S195E, residues 66-285 (Homo sapiens, UniProt P49675, S195E)
T1 sequence (P49675 66-285 S195E): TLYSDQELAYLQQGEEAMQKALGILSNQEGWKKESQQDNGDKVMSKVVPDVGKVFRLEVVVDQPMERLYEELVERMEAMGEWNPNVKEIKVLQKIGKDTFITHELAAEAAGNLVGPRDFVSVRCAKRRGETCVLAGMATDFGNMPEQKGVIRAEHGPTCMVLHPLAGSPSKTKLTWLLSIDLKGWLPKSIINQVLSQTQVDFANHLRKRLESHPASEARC
Assay: NBD fluorescence titration, quadratic fit
Assay type: binding

Kd [µM] | SMILES
0.302 ± 0.029 | CC(C)CCC[C@@H](C)[C@H]1CC[C@H]2[C@@H]3CCC4CC(Nc5ccc([N+](=O)[O-])c6nonc56)CC[C@]4(C)[C@H]3CC[C@]12C (some centres unmarked) [3NC, 3-(NBDamino)-cholestane]
0.026 ± 0.008 | CC(Nc1ccc([N+](=O)[O-])c2nonc12)[C@H]1CC[C@H]2[C@@H]3CC=C4C[C@@H](O)CC[C@]4(C)[C@H]3CC[C@]12C (some centres unmarked) [20NP, 20-((NBDamino)-pregn-5-en-3-ol]

From publication doi:10.1101/116368v1 (biorxiv, 2017)
